The values below come from PMC10197018 (Pediatric blood & cancer, 2021).

Like-named read-outs stand apart in the source and are kept apart here.

Data set [1] has as its system colon carcinoma model. The settings on record: colon carcinoma model ref 34; cited from earlier work.
The subject of data set [2] is solid tumors. The settings on record: cited from earlier work.
The conditions of data set [3]: cited from earlier work.
For data set [4] the following is noted: cited from earlier work. The source holds these as a separate data set.
Data set [5] is described as follows: clinical. The following applies: human, plasma, oral.
For data set [6] the following is noted: single-agent sorafenib, same dose regimen ref 17; cited from earlier work.
Data set [7] is described as follows: Plasma pharmacokinetics of sorafenib given with irinotecan. The settings on record: pediatric patients, combination therapy.
The conditions of data set [8]: human, in vivo, po, 70 mg/m2.
The mark [9] stands for this setting: single agent, pediatric phase 1 trials ref 26, 27, 44.

For `CCc1c2c(nc3ccc(OC(=O)N4CCC(N5CCCCC5)CC4)cc13)-c1cc3c(c(=O)n1C2)COC(=O)[C@]3(O)CC` [Irinotecan], for the setting “human, plasma, po, 70 mg/m2”, the AUC(0-inf) was found to be 594 ± 299 ng·h/mL, the CMAX was determined as 93.9 ± 60.8 ng/mL and the Tmax worked out at 1.97 ± 0.85 h. Further, where the note is “oral irinotecan 70 mg/m^2 with sorafenib, range 0.18–3.49”, the “mean dose-normalized CMAX (CMAX/D)” value was found to be 1.14 ng/mL/mg. For the same compound, where the note is “oral irinotecan 70 mg/m^2 with sorafenib, range 1.7–19.5”, the “dose-normalized AUCINF (AUCINF/D)” value stood at 7.1 ng·h/mL/mg. Besides, in data set [1], the growth delay was 71%. Also, in data set [2] (setting [9]), the “mixed response and/or SD rates” value is reported as 20–26% and the partial response rates was 0 to 6%. Besides, the “MTD of oral irinotecan with temozolomide and vincristine” value in [3] (5 days for 2 weeks with temozolomide 100 mg/m^2/day ref 33) is listed as 35 mg/m^2/daily. Moreover, the “MTD, short course oral irinotecan” value in data set [3] (daily for 5 days every 21 days, solid tumors, patients < 65 years of age ref 31) is recorded as 65 mg/m^2/dose. Further, the “MTD, protracted course of oral irinotecan” value in [3] (daily × 5 days for 2 weeks, pediatric patients, with cefixime ref 30) is on record as 60 mg/m^2/dose. For the same compound, in [3] (daily × 5 days with temozolomide 150 mg/m^2/day ref 33), the “MTD of oral irinotecan with temozolomide and vincristine” value was 90 mg/m^2/daily. In [3] (patients with neuroblastoma ref 32), the “MTD, protracted course of oral irinotecan with temozolomide” value is on record as 60 mg/m^2/day. Further, in data set [4] (irinotecan solution ref 47), the absolute oral bioavailability is recorded as 17%.

Turning to `CCc1c2c(nc3ccc(O)cc13)-c1cc3c(c(=O)n1C2)COC(=O)[C@]3(O)CC` [SN38, 7-ethyl-10-hydroxy camptothecin], the “mean extent of metabolic conversion from SN38 to SN38-G” value (oral irinotecan 70 mg/m^2 with sorafenib, pediatric patients) amounted to 3.73. Also, the “extent of metabolic conversion from SN38 to SN38-G” value is 6.9–13.4 in data set [4] (adults ref 45, 46) and 1.6–4.1 in [4] (other pediatric reports ref 48, 49). The CMAX in [4] (oral irinotecan 60 mg/m^2 in adults ref 47) is recorded as 7.4 ± 4.4 ng/mL. Further, the AUCINF in data set [4] (oral irinotecan study in adults ref 47) was 58.7 ± 31 ng·h/mL. Further, the t1/2 is 11.9 h in [4] (oral study in adults ref 47) and 7.3 to 18.5 h in data set [4] (reported pediatric ranges ref 48).

On to `CNC(=O)c1cc(Oc2ccc(NC(=O)Nc3ccc(Cl)c(C(F)(F)F)c3)cc2)ccn1` [Sorafenib], for which the Tmax in data set [5] amounted to 6.4 h. Further, in data set [6], the Tmax was 4.98 h and the “mean CMAX/D” value is 8.33 ng/mL/mg. For the same compound, in data set [1], the growth delay is 100%. Further, the “prolonged SD” value in data set [2] (phase 2, Wilms tumor, 2 of 10 patients ref 18) is reported as 20%. For the same compound, the responses entry in [2] (phase 2, cohort with rhabdomyosarcoma ref 18) is reported as “no responses”. Further, in [7], the “age-dependent difference in AUC” value is “no significant age-dependent difference”.

Turning to `CCc1c2c(nc3ccc(O[C@@H]4O[C@H](C(=O)O)[C@@H](O)[C@H](O)[C@H]4O)cc13)-c1cc3c(c(=O)n1C2)COC(=O)[C@]3(O)CC` [SN38-G], the AUCINF is 62.1 ± 35.4 (57.0%) hr•ng/mL in data set [8]; 30.8 to 153 ng·h/mL in data set [4] (human, in vivo); 356 ± 348 ng·h/mL in data set [4] (in vivo, po). Also, the CMAX was 5.50 ± 3.38 (61.4%) ng/mL in [8] and 21.7 ± 15.2 ng/mL in [4] (in vivo, po, 60 mg/m2). Also, the Tmax in data set [8] is reported as 3.17 ± 1.09 (34.2%) hr.

In general, AUC(0-inf) refers to total exposure, with the tail of the curve extrapolated. High values mean more exposure, low ones less exposure.
